Measured values published in patent EP0496332A1, “Alpha-aminoquinolinoyl-[3]-penicillines, process for their preparation and their use as antibacterial agents” (ARZNEIMITTELWERK DRESDEN GmbH, priority 1991, dated 1992).
≈ marks a conversion by molar mass, not a printed value.

Legend:
Assay in all cases: In-vitro test, inhibitory concentration by dilution series
Assay type in all cases: cell-based
Escherichia coli = settings: XII = Escherichia coli, Laborstämme, step = concentration with no visible growth; for MIC: read-out: Hemmkonzentration nach Verdünnung (Verdünnungsreihe) (converted)
Excerpt: (§1) Die antibiotische Wirksamkeit erfindungsgemäßer Verbindungen wurde in der üblichen Weise durch Ermittlung der Hemmkonzentrationen nach Verdünnung ermittelt.
(§2) Die erhaltenen Ergebnisse sind in der nachstehenden Tabelle zusammengefaßt.

Citrobacter freudii = settings: XIV = Citrobacter freudii, Laborstämme, step = concentration with no visible growth; for MIC: read-out: Hemmkonzentration nach Verdünnung (Verdünnungsreihe) (converted)
Excerpt: as §1, §2

[1] = system: Klebsiella pneumoniae SG 117; settings: VII = Klebsiella pneumoniae SG 117, step = concentration with no visible growth; for MIC: SG117, read-out: Hemmkonzentration nach Verdünnung (Verdünnungsreihe) (converted)
Excerpt: as §1, §2

Bacillus subtilis SG 119 = settings: I = Bacillus subtilis SG 119, step = concentration with no visible growth; for MIC: SG119, read-out: Hemmkonzentration nach Verdünnung (Verdünnungsreihe) (converted)
Excerpt: as §1, §2

Enterokokken = settings: XI = Enterokokken, Laborstämme, step = concentration with no visible growth; for MIC: read-out: Hemmkonzentration nach Verdünnung (Verdünnungsreihe) (converted)
Excerpt: as §1, §2

Enterobacter cloacae = settings: XIII = Enterobacter cloacae, Laborstämme, step = concentration with no visible growth; for MIC: read-out: Hemmkonzentration nach Verdünnung (Verdünnungsreihe) (converted)
Excerpt: as §1, §2

[2] = system: Salmonella gallinarium ATCC 9184; settings: ATCC9184; VI = Salmonella gallinarium ATCC 9184; step = concentration with no visible growth; read-out: Hemmkonzentration nach Verdünnung (Verdünnungsreihe) (converted)
Excerpt: as §1, §2

Proteus vulgaris OX 19 = settings: III = Proteus vulgaris OX 19, step = concentration with no visible growth; for MIC: OX19, read-out: Hemmkonzentration nach Verdünnung (Verdünnungsreihe) (converted)
Excerpt: as §1, §2

[3] = system: Serratia marcescens SG 621; settings: VIII = Serratia marcescens SG 621, step = concentration with no visible growth; for MIC: SG621, read-out: Hemmkonzentration nach Verdünnung (Verdünnungsreihe) (converted)
Excerpt: as §1, §2

[4] = system: Pseudomonas aeruginosa NCTC 10701; settings: IV = Pseudomonas aeruginosa NCTC 10701, step = concentration with no visible growth; for MIC: NCTC10701, read-out: Hemmkonzentration nach Verdünnung (Verdünnungsreihe) (converted)
Excerpt: as §1, §2

Staphylococcus aureus = settings: IX = Staphylococcus aureus, Laborstämme, step = concentration with no visible growth; for MIC: read-out: Hemmkonzentration nach Verdünnung (Verdünnungsreihe) (converted)
Excerpt: as §1, §2

[5] = system: Pseudomonas aeruginosa SG 137; settings: V = Pseudomonas aeruginosa SG 137, step = concentration with no visible growth; for MIC: SG137, read-out: Hemmkonzentration nach Verdünnung (Verdünnungsreihe) (converted)
Excerpt: as §1, §2

[6] = system: Staphylococcus aureus SG 511; settings: II = Staphylococcus aureus SG 511, step = concentration with no visible growth; for MIC: SG511, read-out: Hemmkonzentration nach Verdünnung (Verdünnungsreihe) (converted)
Excerpt: as §1, §2

[7] = system: Staphylococcus epidermidis; settings: X = Staphylococcus epidermidis, Laborstämme, step = concentration with no visible growth; for MIC: read-out: Hemmkonzentration nach Verdünnung (Verdünnungsreihe) (converted)
Excerpt: as §1, §2

| Structure (SMILES) | MIC (Escherichia coli) [µM] | MIC (Citrobacter freudii) [µM] | MIC [1] [µM] | MIC (Bacillus subtilis SG 119) [µM] | MIC (Enterokokken) [µM] | MIC (Enterobacter cloacae) [µM] | MIC [2] [µM] | MIC (Proteus vulgaris OX 19) [µM] | MIC [3] [µM] | MIC [4] [µM] | MIC (Staphylococcus aureus) [µM] | MIC [5] [µM] | MIC [6] [µM] | MIC [7] [µM] | further results |
| --- | --- | --- | --- | --- | --- | --- | --- | --- | --- | --- | --- | --- | --- | --- | --- |
| CC1(C)S[C@@H]2[C@H](NC(=O)[C@H](N)c3ccccc3)C(=O)N2[C@H]1C(=O)O [Ampicillin, reference compound] | 12.5 (≈ 4.37 µg/mL) | > 200 | 12.5 (≈ 4.37 µg/mL) | 0.2 (≈ 0.0699 µg/mL) | 6.25 (≈ 2.18 µg/mL) | > 200 | 0.78 (≈ 0.273 µg/mL) | 12.5 (≈ 4.37 µg/mL) | 50 (≈ 17.5 µg/mL) | 200 (≈ 69.9 µg/mL) | 12.5 (≈ 4.37 µg/mL) | > 200 | 0.78 (≈ 0.273 µg/mL) | 6.25 (≈ 2.18 µg/mL) |  |
| CCOC(=O)Oc1c(C(=O)N[C@@H](C(=O)N[C@@H]2C(=O)N3[C@@H]2SC(C)(C)[C@@H]3C(=O)O)c2ccccc2)cnc2cc(COc3ccc(Br)cc3)c(CC)cc12 [Beisp. 2, 6-[D-(-)-α-([4'-Ethoxycarbonyloxy-6'-ethyl-7'-(4''-brom)-phenoxymethylen-chinolinoyl-3']-carboxamido)-α-phenylacetamido]-penicillansäure-Natriumsalz] | 1.56 (≈ 1.26 µg/mL) | 6.25 (≈ 5.04 µg/mL) | 0.78 (≈ 0.628 µg/mL) | 3.12 (≈ 2.51 µg/mL) | 12.5 (≈ 10.1 µg/mL) | 6.25 (≈ 5.04 µg/mL) | 1.56 (≈ 1.26 µg/mL) | 0.78 (≈ 0.628 µg/mL) | 1.56 (≈ 1.26 µg/mL) | 6.25 (≈ 5.04 µg/mL) | 25 (≈ 20.1 µg/mL) | 12.5 (≈ 10.1 µg/mL) | 1.56 (≈ 1.26 µg/mL) | 12.5 (≈ 10.1 µg/mL) |  |
| CCOC(=O)Oc1c(C(=O)N[C@@H](C(=O)N[C@@H]2C(=O)N3[C@@H]2SC(C)(C)[C@@H]3C(=O)O)c2ccccc2)cnc2cc(COc3ccc(C)cc3)c(CC)cc12 [Beisp. 3, 6-[D-(-)-α-([4'-Ethoxycarbonyloxy-6'-ethyl-7'-(4''-methyl)-phenoxymethylen-chinolinoyl-3']-carboxamido)-α-phenylacetamido]-penicillansäure-Natriumsalz] | 1.56 (≈ 1.16 µg/mL) | 6.25 (≈ 4.63 µg/mL) | 0.78 (≈ 0.578 µg/mL) | 1.56 (≈ 1.16 µg/mL) | 25 (≈ 18.5 µg/mL) | 6.25 (≈ 4.63 µg/mL) | 3.12 (≈ 2.31 µg/mL) | 0.39 (≈ 0.289 µg/mL) | 0.78 (≈ 0.578 µg/mL) | 3.12 (≈ 2.31 µg/mL) | 50 (≈ 37 µg/mL) | 12.5 (≈ 9.26 µg/mL) | 0.78 (≈ 0.578 µg/mL) | 12.5 (≈ 9.26 µg/mL) |  |
| CCCCOCc1cc2ncc(C(=O)N[C@@H](C(=O)N[C@@H]3C(=O)N4[C@@H]3SC(C)(C)[C@@H]4C(=O)O)c3ccccc3)c(OC(=O)OCC)c2cc1CC [Beisp. 4, 6-[D-(-)-α-([4'-Ethoxycarbonyloxy-6'-ethyl-7'-n-butoxymethylen-chinolinoyl-3']-carboxamido)-α-phenylacetamido]-penicillansäure-Natriumsalz] | 1.56 (≈ 1.1 µg/mL) | 6.25 (≈ 4.42 µg/mL) | 1.56 (≈ 1.1 µg/mL) | 0.39 (≈ 0.276 µg/mL) | 6.25 (≈ 4.42 µg/mL) | 3.12 (≈ 2.21 µg/mL) | 1.56 (≈ 1.1 µg/mL) | 0.78 (≈ 0.551 µg/mL) | 1.56 (≈ 1.1 µg/mL) | 1.56 (≈ 1.1 µg/mL) | 12.5 (≈ 8.84 µg/mL) | 3.12 (≈ 2.21 µg/mL) | 0.78 (≈ 0.551 µg/mL) | 3.12 (≈ 2.21 µg/mL) |  |
| CCCOCc1cc2ncc(C(=O)N[C@@H](C(=O)N[C@@H]3C(=O)N4[C@@H]3SC(C)(C)[C@@H]4C(=O)O)c3ccccc3)c(OC(=O)OCC)c2cc1CC [Beisp. 5, 6-[D-(-)-α-([4'-Ethoxycarbonyloxy-6'-ethyl-7'-n-propoxymethylen-chinolinoyl-3']-carboxamido)-α-phenylacetamido]-penicillansäure-Natriumsalz] | 1.56 (≈ 1.08 µg/mL) | 6.25 (≈ 4.33 µg/mL) | 3.12 (≈ 2.16 µg/mL) | 0.78 (≈ 0.54 µg/mL) | 6.25 (≈ 4.33 µg/mL) | 6.25 (≈ 4.33 µg/mL) | 3.12 (≈ 2.16 µg/mL) | 0.78 (≈ 0.54 µg/mL) | 1.56 (≈ 1.08 µg/mL) | 0.78 (≈ 0.54 µg/mL) | 6.25 (≈ 4.33 µg/mL) | 3.12 (≈ 2.16 µg/mL) | 1.56 (≈ 1.08 µg/mL) | 3.12 (≈ 2.16 µg/mL) |  |
| CCOCc1cc2ncc(C(=O)N[C@@H](C(=O)N[C@@H]3C(=O)N4[C@@H]3SC(C)(C)[C@@H]4C(=O)O)c3ccccc3)c(OC(=O)OCC)c2cc1CC [Beisp. 6, 6-[D-(-)-α-([4'-Ethoxycarbonyloxy-6'-ethyl-7'-ethoxy-methylen-chinolinoyl-3']-carboxamido)-α-phenylacetamido]-penicillansäure-Natriumsalz] | 1.56 (≈ 1.06 µg/mL) | 3.12 (≈ 2.12 µg/mL) | 0.78 (≈ 0.529 µg/mL) | 1.56 (≈ 1.06 µg/mL) | 12.5 (≈ 8.48 µg/mL) | 3.12 (≈ 2.12 µg/mL) | 1.56 (≈ 1.06 µg/mL) | 0.39 (≈ 0.265 µg/mL) | 1.56 (≈ 1.06 µg/mL) | 0.78 (≈ 0.529 µg/mL) | 12.5 (≈ 8.48 µg/mL) | 6.25 (≈ 4.24 µg/mL) | 1.56 (≈ 1.06 µg/mL) | 6.25 (≈ 4.24 µg/mL) |  |
| COc1ccc2ncc(C(=O)N[C@@H](C(=O)N[C@@H]3C(=O)N4[C@@H]3SC(C)(C)[C@@H]4C(=O)O)c3ccccc3)c(O)c2c1 [Beisp. 9, 6-[D-(-)-α-([4'-Hydroxy-6'-methoxy-chinolinoyl-3']-carboxamido)-α-phenylacetamido]-penicillansäure-Natriumsalz] | 3.12 (≈ 1.72 µg/mL) | 25 (≈ 13.8 µg/mL) | 1.56 (≈ 0.859 µg/mL) | 1.56 (≈ 0.859 µg/mL) | 25 (≈ 13.8 µg/mL) | 25 (≈ 13.8 µg/mL) | 1.56 (≈ 0.859 µg/mL) | 0.39 (≈ 0.215 µg/mL) | 1.56 (≈ 0.859 µg/mL) | 0.39 (≈ 0.215 µg/mL) | 12.5 (≈ 6.88 µg/mL) | 25 (≈ 13.8 µg/mL) | 1.56 (≈ 0.859 µg/mL) | 6.25 (≈ 3.44 µg/mL) |  |
| CC(C)COC(=O)Oc1c(C(=O)N[C@@H](C(=O)N[C@@H]2C(=O)N3[C@@H]2SC(C)(C)[C@@H]3C(=O)O)c2ccccc2)cnc2ccc(C(C)C)cc12 [Beisp. 11, 6-[D-(-)-α-([4'-Isobutoxycarbonyloxy-6'-isopropyl-chinolinoyl-3']-carboxamido)-α-phenylacetamido]-penicillansäure-Natriumsalz] | 3.12 (≈ 2.07 µg/mL) | 12.5 (≈ 8.28 µg/mL) | 3.12 (≈ 2.07 µg/mL) | 3.12 (≈ 2.07 µg/mL) | 12.5 (≈ 8.28 µg/mL) | 12.5 (≈ 8.28 µg/mL) | 3.12 (≈ 2.07 µg/mL) | 0.78 (≈ 0.517 µg/mL) | 3.12 (≈ 2.07 µg/mL) | 1.56 (≈ 1.03 µg/mL) | 25 (≈ 16.6 µg/mL) | 12.5 (≈ 8.28 µg/mL) | 3.12 (≈ 2.07 µg/mL) | 12.5 (≈ 8.28 µg/mL) |  |
| CC(C)COC(=O)Oc1c(C(=O)N[C@@H](C(=O)N[C@@H]2C(=O)N3[C@@H]2SC(C)(C)[C@@H]3C(=O)[O-])c2ccccc2)cnc2c1ccc1ccccc12.[Na+] [Beisp. 12, 6-[D-(-)-α-([4'-Isobutoxycarbonyloxybenzo[1,2n]chinolinoyl-3']-carboxamido)-α-phenylacetamido]-penicillansäure-Natriumsalz] |  |  |  |  |  |  |  |  |  |  |  |  |  |  | Hemmkonzentration nach Verdünnung (Verdünnungsreihe) (Escherichia coli): 7 (= bei 0,00312 mM); Hemmkonzentration nach Verdünnung (Verdünnungsreihe) (Citrobacter freudii): 6 (= bei 0,00625 mM); Hemmkonzentration nach Verdünnung (Verdünnungsreihe) [1]: 9 (= bei 0,00078 mM); Hemmkonzentration nach Verdünnung (Verdünnungsreihe) (Bacillus subtilis SG 119): 7 (= bei 0,00312 mM); Hemmkonzentration nach Verdünnung (Verdünnungsreihe) (Enterokokken): 5 (= bei 0,0125 mM); Hemmkonzentration nach Verdünnung (Verdünnungsreihe) (Enterobacter cloacae): 6 (= bei 0,00625 mM); Hemmkonzentration nach Verdünnung (Verdünnungsreihe) (Proteus vulgaris OX 19): 10 (= bei 0,00039 mM); Hemmkonzentration nach Verdünnung (Verdünnungsreihe) [3]: 7 (= bei 0,00312 mM); Hemmkonzentration nach Verdünnung (Verdünnungsreihe) [4]: 7 (= bei 0,00312 mM); Hemmkonzentration nach Verdünnung (Verdünnungsreihe) (Staphylococcus aureus): 6 (= bei 0,00625 mM); Hemmkonzentration nach Verdünnung (Verdünnungsreihe) [5]: 5 (= bei 0,0125 mM); Hemmkonzentration nach Verdünnung (Verdünnungsreihe) [6]: 9 (= bei 0,00078 mM); Hemmkonzentration nach Verdünnung (Verdünnungsreihe) [7]: 7 (= bei 0,00312 mM) |
